# Reference: patent US20050113413A1, “Naphthalene-1,5-disulfonic acid salts of a substituted 4-amino-1-(pyridylmethyl)piperidine compound” (priority 2003, published 2005)
# How the values were obtained:
# [1] = system: rat bladder (volume-induced bladder contractions); experiment: In vivo rat bladder assay (volume-induced bladder contraction amplitude); parameters: species or system Sprague-Dawley rats; conditions: anesthetized female rats, intravenous, normalized to atropine response
# Description: Female Sprague-Dawley rats (Harlan, Indianapolis, Ind.) weighing 200 to 300 g were anesthetized with urethane (1.5 g/kg, s.c., Sigma, St. Louis, Mo.), with a supplement of 0.25 g/kg, s.c. urethane as needed. Urethane was administered at a concentration of 0.25 g/mL.
# Rats were prepared for surgery by shaving the neck and abdomen and cleansing with ethanol wipes. First, an incision was made on the ventral surface. An intravenous catheter was placed by isolating and ligating the femoral vein. […]
# Thereafter, an intravenous dose of the test compound was administered and changes in VIBCAmp were recorded for 15 minutes. Atropine (0.1 mg/kg) was then administered intravenously (1 mL/kg) as a positive control and VIBCAmp and data was recorded for an additional 15 minutes. […]
# Alternatively, after the vehicle, increasing cumulative intravenous doses of the test compound were administered at 15 minute intervals (1 mL/kg) and changes in VIBCAmp were recorded for 15 minutes. […]
# The average VIBCAmp during the 5-15 minute period after test compound and atropine was determined and subtracted from the average VIBCAmp during the 5-15 minute post-vehicle period to obtain the test compound or atropine-induced change in VIBCAmp. […]
# [2] = biological target: T1, hM3 muscarinic receptor subtype (Homo sapiens, UniProt P20309); experiment: Radioligand binding assay ([3H]NMS displacement), hM3 relative to hM2; conditions: ratio of Ki values
# T1 construct: expressed in transfected cells; membranes prepared
# Description: CHO (Chinese hamster ovary) cell lines stabilely expressing cloned human hM1, hM2, hM3 and hM4 muscarinic receptor subtypes, respectively, were grown to near confluency in medium consisting of HAM's F-12 supplemented with 10% FBS (Fetal Bovine Serum) and 250 μg/mL Geneticin. The cells were grown in a 5% CO2, 37° C. incubator and lifted with dPBS+2 mM EDTA. Cells were collected by 5 minute centrifugation at 650×g, and cell pellets were either stored frozen at −80° C. or membranes were prepared immediately. For membrane preparation, cell pellets were resuspended in lysis buffer and homogenized with a Polytron PT-2100 tissue disrupter (Kinematica AG; 20 seconds×2 bursts). Crude membranes were centrifuged at 40,000×g for 15 minutes at 4° C. […] Protein concentration of the membrane suspension was determined by the method of Lowry, O. et al., (1951) Journal of Biochemistry: 193, 265. […]
# Radioligand binding assays were performed in 96-well microtiter plates in a total assay volume of 100 μL. […] Filter plates were rinsed three times with wash buffer (10 mM HEPES) to remove unbound radioactivity. […] The plates were then counted in a PerkinElmer Topcount liquid scintillation counter (PerkinElmer Inc., Wellesley, Mass.). Binding data were analyzed by nonlinear regression analysis with the GraphPad Prism Software package (GraphPad Software, Inc., San Diego, Calif.) using the one-site competition model. […]
# T1 sequence (P20309 whole entry): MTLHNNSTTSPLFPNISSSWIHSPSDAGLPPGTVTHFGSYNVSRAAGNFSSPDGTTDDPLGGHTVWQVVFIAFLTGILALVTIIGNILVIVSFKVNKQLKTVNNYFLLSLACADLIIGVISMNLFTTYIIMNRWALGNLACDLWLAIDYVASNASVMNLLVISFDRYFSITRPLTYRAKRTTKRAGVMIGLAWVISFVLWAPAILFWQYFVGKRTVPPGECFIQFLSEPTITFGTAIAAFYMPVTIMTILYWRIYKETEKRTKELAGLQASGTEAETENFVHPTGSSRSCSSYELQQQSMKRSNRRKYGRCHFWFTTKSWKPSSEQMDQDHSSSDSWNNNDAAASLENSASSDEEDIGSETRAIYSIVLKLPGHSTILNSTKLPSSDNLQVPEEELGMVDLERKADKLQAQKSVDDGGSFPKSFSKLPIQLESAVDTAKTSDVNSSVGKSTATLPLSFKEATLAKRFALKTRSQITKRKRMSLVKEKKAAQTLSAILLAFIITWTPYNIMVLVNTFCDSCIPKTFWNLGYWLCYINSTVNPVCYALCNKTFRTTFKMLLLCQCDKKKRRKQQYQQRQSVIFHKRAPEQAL
smiles,measurement,setting,value
COc1ccncc1CN1CCC(N(CCCCCCCN2CC[C@@H](C(C(N)=O)(c3ccccc3)c3ccccc3)C2)C(C)C)CC1 [Example 6],"ID50 (dose required to produce 50% of the maximal response), VIBCAmp",[1],less than or equal to 0.1 mg/kg
same,hM3/hM2 ratio,[2],greater than 40
